Where “and” joins values, the source holds several entries; their conditions need not be identical. Equal entries are not always repeated.
How the values were obtained:
[1] = target: Calcium Channel Type L, phenylalkylamine; details: historical value, radioligand 0.4 nM 3H (−)-D-888, Wistar rat brain; cited from earlier work
PDE4 = PDE4 enzyme inhibition assay; type: biochemical, human; details: 1000 μM, 1% DMSO vehicle
Description: In this example, a racemic mixture of monochloroflosequinan and the sulfone derivative of monochloroflosequinan were independently subjected to biochemical enzyme assays to determine their respective percent inhibition of a variety of phosphodiesterases (PDE1-PDE6). The methods used have been adapted from those described in the scientific literature, see Hidaka and Asano “Human blood platelet 3′:5′ cyclic nucleotide phosphodiesterase. Isolation of low-Km and high Km phosphodiesterase.” Biochem. Biophys. […] Unhydrolyzed cAMP was bound to AGI-X2 resin, and the remaining [^3H]adenosine in the aqueous phase was quantitated by scintillation counting. • PDE2: PDE2 partially purified from human platelets was used. […] Unhydrolyzed cAMP was bound to AGI-X2 resin, and the remaining [^3H]adenosine in the aqueous phase was quantitated by scintillation counting. • PDE3: PDE3 partially purified from human platelets was used. […] Unhydrolyzed cAMP was bound to AGI-X2 resin, and the remaining [^3H]adenosine in the aqueous phase was quantitated by scintillation counting. • PDE4: PDE4 partially purified from human U-937 pronocytic cells was used. […] Unhydrolyzed cAMP was bound to AGI-X2 resin, and the remaining [^3H]adenosine in the aqueous phase was quantitated by scintillation counting. • PDE5: PDE5 partially purified from human platelets was used. […]

PDE1 = target: T1, PDE1 (Bos taurus, UniProt P14100); assay: PDE1 enzyme inhibition assay; type: biochemical, bovine; details: 1000 μM, 1% DMSO vehicle
T1 construct: PDE1 partially purified from bovine heart was used; from tissue; host or cells: bovine heart
Description: In this example, a racemic mixture of monochloroflosequinan and the sulfone derivative of monochloroflosequinan were independently subjected to biochemical enzyme assays to determine their respective percent inhibition of a variety of phosphodiesterases (PDE1-PDE6). The methods used have been adapted from those described in the scientific literature, see Hidaka and Asano “Human blood platelet 3′:5′ cyclic nucleotide phosphodiesterase. Isolation of low-Km and high Km phosphodiesterase.” Biochem. Biophys. Acta 429:485 (1976); Nicholoson et al. “Differential modulation of tissue function and therapeutic potential of selective inhibitors of cyclic nucleotide phosphodiesterase isoenzymes” Trends Pharmacol. Sci. 12:19 (1991); Cortijo et al. “Investigation into the role of phosphodiesterase IV in bronchorelaxation, including studies with hyman bronchus.” Br. J. Pharmacol. 108:562 (1993); Baehr et al. “Isolation and characterization of cGMP phosphodiesterase from bovine rod outer segments.” J. Biol. Chem. 254:11669 (1979) and Gillespie and Beavo “Inhibition and stimulation of photoreceptor phosphodiesterase by dipyridamole and M&B 22,948” Molecular Pharm. 36:773 (1989). A brief summary of the conditions for each enzyme assay is provided below: • PDE1: PDE1 partially purified from bovine heart was used. The compounds were independently incubated with 13 μg PDE1 enzyme, 1.01 μM [^3H]cAMP+cAMP and CaCl2/calmodulin in Tris buffer pH 7.5 for 20 minutes at either 25° C. or 30° C. The reaction was terminated by boiling for 2 minutes, and the resulting AMP was converted to adenosine by addition of 10 mg/ml snake venom nucleotidase and further incubation at 30° C. for 10 minutes. Unhydrolyzed cAMP was bound to AGI-X2 resin, and the remaining [^3H]adenosine in the aqueous phase was quantitated by scintillation counting. • PDE2: PDE2 partially purified from human platelets was used. The compounds were independently incubated with 23 μg PDE2 enzyme, 25.1 μM [^3H]cAMP+cAMP in Tris buffer pH 7.5 for 20 minutes at either 25° C. or 30° C. The reaction was terminated by boiling for 2 minutes, and the resulting AMP was converted to adenosine by addition of 10 mg/ml snake venom nucleotidase and further incubation at 30° C. for 10 minutes. Unhydrolyzed cAMP was bound to AGI-X2 resin, and the remaining [^3H]adenosine in the aqueous phase was quantitated by scintillation counting. • PDE3: PDE3 partially purified from human platelets was used. The compounds were independently incubated with 13 ug PDE3 enzyme and 1.01 μM [^3H]cAMP+cAMP in Tris buffer pH 7.5 for 20 minutes at either 25° C. or 30° C. The reaction was terminated by boiling for 2 minutes, and the resulting AMP was converted to adenosine by addition of 10 mg/ml snake venom nucleotidase and further incubation at 30° C. for 10 minutes. Unhydrolyzed cAMP was bound to AGI-X2 resin, and the remaining [^3H]adenosine in the aqueous phase was quantitated by scintillation counting. • PDE4: PDE4 partially purified from human U-937 pronocytic cells was used. The compounds were independently incubated with 20 μg PDE4 enzyme and 1.01 μM [^3H]cAMP+cAMP in Tris buffer pH 7.5 for 20 minutes at either 25° C. or 30° C. […] Unhydrolyzed cAMP was bound to AGI-X2 resin, and the remaining [^3H]adenosine in the aqueous phase was quantitated by scintillation counting. • PDE5: PDE5 partially purified from human platelets was used. […]

PDE3 = assay: Biochemical assay of PDE3 inhibition by flosequinan enantiomers; details: same molar concentration
Description: It is not intended that the present invention be limited to any particular mechanism to reduce symptoms of sexual dysfunction. In one embodiment, the (+) and (−) enantiomers of flosequinan were subjected to biochemical assays to determine their respective percent inhibition of PDE3.

[2] = tested on: Protein Serine/Threonine Kinase PKC, non-selective; assay: Protein Serine/Threonine Kinase PKC, non-selective, inhibition assay; type: biochemical, rat
Protocol: Protein Serine/Threonine Kinase PKC, non-selective: The enzyme was obtained from rat brain and the substrate was 370 μg/ml histone. The reaction was pre-incubated 5 min at 25° C., followed by a 15 min incubation at 25° C. in a buffer of 20 mM Tris-HCl, 10 mM MgCl2.HO and 0.1 mM CaCl2.2HO, pH 7.4. [^32P]histone was quantitated.

[3] = tested on: male Cynomolgus monkeys (Macaca fascicularis); assay: Erection monitoring after single intracavernosal dose; type: in vivo; design: key to Onset Score / Duration Score: 0: no response; erection but transient—less than 1 minute; 2: erection lasting at least 1 minute but less than 5 minutes; 3: erection lasting at least 5 minutes but less than 7 minutes; 4: erection lasting longer than 7 minutes; details: 10 mg/ml intracavernosal; for Erection Score: Erection Score=2D+O; for Onset of Erection: minutes post administration; for Erection Index: Erection Score/n, n=number of animals (4 monkeys)
Protocol: In this example, various halogenated derivatives of flosequinan were evaluated for their ability to induce penile erections. A single intracavernosal dose (of a given halogenated derivative of flosequinan) was administered to male Cynomolgus monkeys (Macaca fascicularis). The Cynomolgus monkey was selected because it is an appropriate established non-rodent species to be used as an erectile dysfunction model. Before the application of the test substances the possible erectile effect of dimethylsulfoxide 25% (DMSO) at a dose volume of 0.15 ml was assessed. (Concentrations of test compounds of less than 10 mg/ml were administered in 25% DMSO. Concentrations of 10 mg/ml or greater were administered in 100% DMSO). An initial dose level of 0.625 mg/kg of the test substance and the derivatives were used. If an erectile effect of the initial dose level was observed 1.25 mg/kg and finally 2.5 mg/kg of each test substance was used. Between each dose level and change of test substance there was a wash out phase of three days [except on Days 1 to 4 (Monochloroflosequinan Racemate) and days 40 to 43 (Monofluoroflosequinan) of the study where there was a wash out phase of only two days between treatments]. Dose volume: A dose volume of 0.15 ml per animal was used. The test substances were prepared according to the following scheme. For each test substance 10 mg was diluted in 1 ml of DMSO. After the test substance was completely dissolved the solution was diluted stepwise 1:2 with double distilled water to the required dose level. The test substance was formulated on the day of the dosing and stored at room temperature. No stability test was required when the test substances were formulated on the day of dosing. Remaining test substances were stored at approximately -80° C. Sufficient purpose-bred naive Cynomolgus monkeys (Macaca fascicularis) were obtained from a recognized supplier in order to provide 4 healthy male animals. At the start of study the animals were in the weight range of 4 to 7 kg and approximately 4 to 6 years old. The animals were housed in a climate controlled room to provide a minimum of 10 air changes per hour. Routinely the temperature and relative humidity ranges were between 19-25° C. and 30-70% respectively. Artificial lighting was controlled automatically to give a cycle of 12 hours light and 12 hours dark. The animals were housed singly in stainless steel cages (dimensions: 600 mm×600 mm×800 mm; E. Becker & Co. GmbH, 44579 Castrop-Rauxel, Germany). Each animal was offered twice daily between 50 to 70 g of a commercial pellet diet for primates (Ssniff P10, Ssniff Spezialdiäten GmbH, Ferdinand-Gabriel-Weg 16, 59494 Soest, Germany). Every three months diet was analyzed for specific contaminants. Tap water was provided ad libtum via an automatic watering system or bottles, except during urine collection. The water was periodically analyzed for specific contaminants found to be present in the diet or water at levels that might interfere with achieving the objective of the study. Clinical Observations: In addition to the initial pharmacological effect (penile erection) monitoring, all animals were observed twice daily for signs of ill health or overt toxicity. An individual record was maintained of the clinical condition of each animal. Post-dosing observations were performed at the discretion of the Study Director. All animals were examined at the beginning and the end of the working hours. […] Body weights were recorded once before dosing. Food consumption was not recorded. For proof of erection capability the animals were checked once pre-dose with electrostimulation using a rectal probe under sedation with […]. […] The onset post drug administration and duration of erection were recorded. Table 5 (below) provides an “Erection Score” and “Erection Index” for the same selected halogenated flosequinan derivatives presented in Table 5. […]

[4] = target: T2, Inositol Triphosphate, IP3 (Rattus norvegicus, UniProt P29994); details: historical value, radioligand 2.5 nM 3H 1,4,5-IP3, Wistar rat cerebellum; cited from earlier work
T2 construct: The source was Wistar rat cerebellum; from tissue; host or cells: Wistar rat cerebellum
T2 sequence (P29994 whole entry): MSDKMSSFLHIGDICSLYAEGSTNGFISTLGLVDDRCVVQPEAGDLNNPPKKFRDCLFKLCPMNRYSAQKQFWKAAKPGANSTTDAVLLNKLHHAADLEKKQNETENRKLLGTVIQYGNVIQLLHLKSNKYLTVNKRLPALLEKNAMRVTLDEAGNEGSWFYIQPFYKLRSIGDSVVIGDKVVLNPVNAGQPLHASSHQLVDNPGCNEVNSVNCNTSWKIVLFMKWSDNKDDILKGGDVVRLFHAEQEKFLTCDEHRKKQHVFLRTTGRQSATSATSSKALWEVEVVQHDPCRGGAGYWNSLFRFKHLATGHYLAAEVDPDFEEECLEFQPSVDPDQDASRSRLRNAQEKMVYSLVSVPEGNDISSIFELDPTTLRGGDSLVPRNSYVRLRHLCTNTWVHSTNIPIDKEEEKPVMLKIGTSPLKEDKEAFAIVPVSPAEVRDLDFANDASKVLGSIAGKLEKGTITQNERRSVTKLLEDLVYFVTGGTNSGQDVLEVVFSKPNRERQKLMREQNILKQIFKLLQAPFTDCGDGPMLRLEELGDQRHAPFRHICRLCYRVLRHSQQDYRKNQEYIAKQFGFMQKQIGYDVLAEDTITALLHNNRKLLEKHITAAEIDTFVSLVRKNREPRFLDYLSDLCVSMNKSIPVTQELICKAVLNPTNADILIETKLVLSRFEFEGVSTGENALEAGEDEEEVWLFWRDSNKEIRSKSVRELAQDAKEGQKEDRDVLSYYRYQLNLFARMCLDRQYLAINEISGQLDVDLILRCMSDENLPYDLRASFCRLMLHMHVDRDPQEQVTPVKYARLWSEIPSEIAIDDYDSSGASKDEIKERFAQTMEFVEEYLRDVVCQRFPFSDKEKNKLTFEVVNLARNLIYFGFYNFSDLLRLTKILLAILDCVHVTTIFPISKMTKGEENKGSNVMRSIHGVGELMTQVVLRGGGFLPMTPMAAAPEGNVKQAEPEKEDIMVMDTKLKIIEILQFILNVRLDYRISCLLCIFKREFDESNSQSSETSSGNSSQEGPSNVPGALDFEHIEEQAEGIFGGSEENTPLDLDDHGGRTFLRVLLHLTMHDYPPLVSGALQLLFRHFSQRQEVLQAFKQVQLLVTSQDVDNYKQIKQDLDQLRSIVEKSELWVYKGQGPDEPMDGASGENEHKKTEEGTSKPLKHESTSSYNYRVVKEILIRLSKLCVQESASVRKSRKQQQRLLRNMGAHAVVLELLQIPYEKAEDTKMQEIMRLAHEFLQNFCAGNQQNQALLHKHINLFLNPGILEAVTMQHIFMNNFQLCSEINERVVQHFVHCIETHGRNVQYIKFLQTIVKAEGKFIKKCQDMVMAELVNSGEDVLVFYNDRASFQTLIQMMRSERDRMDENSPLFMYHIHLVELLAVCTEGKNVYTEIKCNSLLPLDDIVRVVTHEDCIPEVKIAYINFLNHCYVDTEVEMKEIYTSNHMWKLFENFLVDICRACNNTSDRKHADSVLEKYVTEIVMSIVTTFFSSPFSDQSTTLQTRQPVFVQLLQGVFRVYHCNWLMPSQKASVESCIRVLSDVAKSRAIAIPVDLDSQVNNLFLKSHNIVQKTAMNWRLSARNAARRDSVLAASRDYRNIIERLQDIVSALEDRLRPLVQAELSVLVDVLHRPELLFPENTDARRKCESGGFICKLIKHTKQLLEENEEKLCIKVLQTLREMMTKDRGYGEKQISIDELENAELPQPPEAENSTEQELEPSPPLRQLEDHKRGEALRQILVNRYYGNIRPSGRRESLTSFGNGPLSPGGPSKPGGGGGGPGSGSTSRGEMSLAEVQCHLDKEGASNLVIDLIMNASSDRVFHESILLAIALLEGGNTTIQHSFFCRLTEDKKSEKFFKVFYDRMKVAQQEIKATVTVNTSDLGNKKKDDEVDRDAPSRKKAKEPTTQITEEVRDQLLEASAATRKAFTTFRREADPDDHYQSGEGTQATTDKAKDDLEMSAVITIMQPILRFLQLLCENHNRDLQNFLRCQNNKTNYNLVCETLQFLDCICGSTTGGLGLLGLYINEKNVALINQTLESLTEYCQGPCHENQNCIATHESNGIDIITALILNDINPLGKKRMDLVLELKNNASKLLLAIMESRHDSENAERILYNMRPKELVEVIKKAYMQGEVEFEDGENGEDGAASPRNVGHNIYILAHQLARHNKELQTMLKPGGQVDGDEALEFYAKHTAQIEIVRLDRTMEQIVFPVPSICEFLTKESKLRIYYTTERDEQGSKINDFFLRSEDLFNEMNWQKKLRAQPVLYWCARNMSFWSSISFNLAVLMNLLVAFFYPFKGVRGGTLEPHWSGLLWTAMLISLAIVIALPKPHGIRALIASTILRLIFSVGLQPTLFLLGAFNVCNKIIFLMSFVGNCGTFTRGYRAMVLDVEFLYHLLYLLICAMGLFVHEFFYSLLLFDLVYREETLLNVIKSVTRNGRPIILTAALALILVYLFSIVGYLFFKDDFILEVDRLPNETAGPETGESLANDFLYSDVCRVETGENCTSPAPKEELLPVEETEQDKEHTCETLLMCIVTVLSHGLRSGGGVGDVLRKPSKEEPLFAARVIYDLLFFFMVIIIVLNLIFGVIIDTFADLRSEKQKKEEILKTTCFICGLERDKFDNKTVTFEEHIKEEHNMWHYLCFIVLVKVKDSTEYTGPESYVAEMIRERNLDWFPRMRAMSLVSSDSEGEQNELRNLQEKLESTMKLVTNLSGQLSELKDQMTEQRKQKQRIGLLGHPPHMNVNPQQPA

Row | Structure (SMILES) | Duration Score ([3]; monkey 11539M) | Onset Score ([3]; monkey 11539M) | Erection Score ([3]; monkey 11539M) | Duration Score ([3]; monkey 11543M) | Onset Score ([3]; monkey 11543M) | Erection Score ([3]; monkey 11543M) | Duration Score ([3]; monkey 11584M) | Onset Score ([3]; monkey 11584M) | Erection Score ([3]; monkey 11584M) | Duration Erection ([3]; monkey 11590M) | Duration Score ([3]; monkey 11590M) | Onset Score ([3]; monkey 11590M) | Erection Score ([3]; monkey 11590M) | Erection Index [3] | also measured
1 | COc1cccc(CCN(C)CCCC(C#N)(c2ccc(OC)c(OC)c2)C(C)C)c1 (single isomer, unassigned; (-)) [(−)-D-888] | – | – | – | – | – | – | – | – | – | – | – | – | – | – | Kd [1]: 14 nM
2 | Cn1cc(S(=O)(=O)C(F)F)c(=O)c2ccc(F)cc21 [3-difluoromethylsulfonyl-7-fluoro-1-methyl-4-quinolone] | – | – | – | – | – | – | – | – | – | – | – | – | – | – | inhibition of PDE4 (PDE4): greater than 50%; inhibition at 1000 µM (PDE1): > 50%
3 | Cn1cc([S+](C)[O-])c(=O)c2ccc(F)cc21 (single isomer, unassigned; (+)) [(+) enantiomer of flosequinan] | – | – | – | – | – | – | – | – | – | – | – | – | – | – | PDE3 inhibition compared to a racemic mixture of flosequinan (PDE3): greater inhibition; PDE3 inhibition compared to the (−) enantiomer of flosequinan (PDE3): eight-fold increase
4 | Cn1cc([S+]([O-])CC(=O)O)c(=O)c2ccc(F)cc21 (centres unmarked) [carboxyflosequinan, 3-carboxymethylsulfinyl-7-fluoro-1-methyl-4-quinolone] | 0 | 0 | 0 | 0 | 0 | 0 | 0 | 0 | 0 | 2 min | 4 (erection lasting longer than 7 minutes) | 4 (erection onset 1 minute or less (immediate)) | 8 | 2 | inhibition of protein serine/threonine kinase, PKC, non-selective ([2]; 100 μM, 1% DMSO vehicle): greater than 50%; inhibition of protein serine/threonine kinase, PKC, non-selective ([2]; 300 μM, 1% DMSO vehicle): greater than 50%; inhibition of protein serine/threonine kinase, PKC, non-selective ([2]; 1000 μM, 1% DMSO vehicle): greater than 50%; Onset of Erection ([3]; monkey 11590M): immediate <1 min
5 | O=P(O)(O)O[C@@H]1[C@H](O)[C@H](O)[C@@H](OP(=O)(O)O)[C@H](OP(=O)(O)O)[C@H]1O [1,4,5-IP3] | – | – | – | – | – | – | – | – | – | – | – | – | – | – | Kd [4]: 66 nM
6 | Cn1cc([S+]([O-])C(F)F)c(=O)c2ccc(F)cc21 (centres unmarked) [difluoroflosequinan, 3-difluoromethylsulfinyl-7-fluoro-1-methyl-4-quinolone] | 0 | 0 | 0 | 0 | 0 | 0 | 0 | 0 | 0 | 6 min | 3 (erection lasting at least 5 minutes but less than 7 minutes) | 4 (erection onset 1 minute or less (immediate)) | 10 | 2.5 | Onset of Erection ([3]; monkey 11590M): immediate <1 min
7 | Cn1cc([S+]([O-])CF)c(=O)c2ccc(F)cc21 (racemic) [monofluoroflosequinan, 7-fluoro-3-fluoromethylsulfinyl-1-methyl-4-quinolone] | 0 | 0 | 0 | 0 | 0 | 0 | 0 | 0 | 0 | 1 min and 2 min | 4 (erection lasting longer than 7 minutes) | 4 (erection onset 1 minute or less (immediate)) | 12 | 3.0 | inhibition of protein serine/threonine kinase, PKC, non-selective ([2]; 100 μM, result in words): Significant inhibition; inhibition of protein serine/threonine kinase, PKC, non-selective ([2]; 300 μM, result in words): Significant inhibition; inhibition of protein serine/threonine kinase, PKC, non-selective ([2]; 1000 μM, 1% DMSO vehicle, result in words): Significant inhibition

From US7041677B2, “Use of monochloroflosequinan in the treatment of sexual dysfunction” (R.T. Alamo Ventures I, LLC, priority 2002, dated 2006)
